The experiment concerns the target T1, RORγt (hRORC LBD) (Homo sapiens, UniProt P51449).
T1 construct: expressed in transfected cells; host or cells: HEK 293 (transient cotransfection with pGL4.3 luc2P/GAL4UAS/Hygro reporter)
T1 sequence (P51449 269-508 limits assumed): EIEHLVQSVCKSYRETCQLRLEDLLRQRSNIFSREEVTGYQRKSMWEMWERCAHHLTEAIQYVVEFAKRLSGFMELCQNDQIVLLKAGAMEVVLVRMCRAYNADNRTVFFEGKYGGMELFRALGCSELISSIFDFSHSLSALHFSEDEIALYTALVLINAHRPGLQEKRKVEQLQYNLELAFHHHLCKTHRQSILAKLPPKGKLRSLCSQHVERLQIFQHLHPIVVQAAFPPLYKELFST
The experiment in a line: RGA Assay: nuclear receptor transactivation assay, RORγt transactivation of a luciferase reporter. The experiment is classed as cell-based. As to conditions: transiently transfected HEK 293 cells, Gal4DBD hRORC LBD, 20-24 hours incubation. The method, then: A nuclear receptor transactivation assay was performed to quantitate the ability of test compounds to inhibit RORγt transactivation of a luciferase reporter. A similar assay is described in: Khan et al., Bioorganic & Medicinal Chemistry Letters 23 (2013), 532-536. The system uses transiently transfected HEK 293 cells cotransfected with two plasmids (pGL4.3, luc2P/GAL4UAS/Hygro, and pBIND, Gal4DBD hRORC LBD1-3). The positive control is co-transiently transfected with both plasmids, and the negative control contains the pGL4.3 promoter sequence. Assays were assembled in 384 well plates where transiently transfected cells and test compound at varying concentrations were incubated for 20-24 hours. The next day, assays plates are taken out and equilibrated at RT for 20-30 minutes. Bright-Glo™ Luciferase Assay System is used to detect Luciferase production. After addition of Bright GLO detection reagent, the plates were incubated at RT for 20 minutes. The plates were read on an Envision plate reader to measure luminescence signal. The RLU signal is converted to POC relative to control and blank wells.
Compound Dilution Buffer:
Bright Glo Luciferase Assay System: Promega #E2620
Thaw lysis buffer provided in kit, add 100 mL lysis buffer to substrate powder.
In general terms: A reporter such as luciferase makes a cellular process visible.

Each structure is given as a SMILES string.

The IC50 is the point on the concentration scale where inhibition reaches its midpoint.

As for `CCS(=O)(=O)c1ccc(CNC(=O)N2CC3(CCCC3)c3cc(-c4ccccc4-c4cnco4)ccc32)cc1` [Example 78], half-maximal inhibition (IC50) was put at 790 nM. For the molecule `CNS(=O)(=O)c1ccc(CNC(=O)N2CC3(CCCC3)c3cc(-c4cc(C(C)=O)ccc4C)ccc32)cc1` [Example 35], the IC50 was determined as 890 nM. Turning to `CNS(=O)(=O)c1ccc(CNC(=O)N2CC3(CCCC3)c3cc(-c4ccc(O)cc4C)ccc32)cc1` [Example 11], the 50% inhibitory concentration (IC50) stood at 690 nM. With `CNS(=O)(=O)c1ccc(CNC(=O)N2CC3(CCCC3)c3cc(-c4ccccc4C(C)(C)O)ccc32)cc1` [Example 86], the IC50 was 1000 nM. `CNS(=O)(=O)c1ccc(CNC(=O)N2CC3(CCCC3)c3cc(-c4cncnc4C(C)C)ccc32)cc1` [Example 18] came in with a concentration for half-maximal inhibition (IC50) of 1000 nM.

As for `CNS(=O)(=O)c1ccc(CNC(=O)N2CC3(CCCC3)c3cc(-c4cccc(C#N)c4C)ccc32)cc1` [Example 38], the half-inhibitory concentration (IC50) amounted to 970 nM. Consider `CNS(=O)(=O)c1ccc(CNC(=O)N2CC3(CCCC3)c3cc(-c4cc(O)ccc4C)ccc32)cc1` [Example 92], for which 1100 nM corresponded to half-maximal inhibition (IC50).

Regarding `COc1ccc(-c2ccc3c(c2)C2(CCCC2)CN3C(=O)NCc2ccc(C#N)c(C)c2)c(C(F)(F)F)c1` [Example 97], half-maximal inhibition (IC50) was put at 770 nM. Regarding `CNS(=O)(=O)c1ccc(CNC(=O)N2CC3(CCCC3)c3cc(-c4cc(F)ccc4C)ccc32)cc1` [Example 16], the IC50 was determined as 960 nM.

Molecule `CNS(=O)(=O)c1ccc(CNC(=O)N2CC3(CCCC3)c3cc(-c4c(C)ccc(F)c4CC#N)ccc32)cc1` [Example 90] registered an IC50 of 580 nM.

The molecule `CCCC1(C)CN(C(=O)NCc2ccc(S(=O)(=O)NC)cc2)c2ccc(-c3ccc(F)cc3C)cc21` (centres unmarked) [Example 65] showed an IC50 of 1500 nM. For the molecule `CCS(=O)(=O)c1ccc(CNC(=O)N2C[C@](C)(C3CC3)c3cc(-c4c(OC)ncnc4C4CC4)ccc32)cc1` [Example 127], the IC50 came to 500 nM. Regarding `CNS(=O)(=O)c1ccc(CNC(=O)N2CC3(CCCC3)c3cc(-c4ccc(F)cc4C)ccc32)cc1` [Example 1], the IC50 is 840 nM.

As for `CCC1(C)CN(C(=O)NCc2ccc(S(=O)(=O)NC)cc2)c2ccc(-c3ccc(F)cc3C)cc21` (centres unmarked) [Example 53], the IC50 amounted to 1200 nM. `CNS(=O)(=O)c1ccc(CNC(=O)N2CC3(CCCC3)c3cc(-c4cc(CN)ccc4C)ccc32)cc1` [Example 98] returned a half-inhibitory concentration (IC50) of 1200 nM. `CNS(=O)(=O)c1ccc(CNC(=O)N2CC3(CCCC3)c3cc(-c4cc(F)ccc4C(=O)OC)ccc32)cc1` [Example 79] yielded an IC50 of 940 nM. `CNS(=O)(=O)c1ccc(CNC(=O)N2CC3(CCCC3)c3cc(-c4cc(CN5CCC(O)C5)ccc4C)ccc32)cc1` (centres unmarked) [Example 103] came in with an IC50 of 1800 nM. `CCS(=O)(=O)c1ccc(CNC(=O)N2CC(C)(C3CCC3)c3cc(-c4c(OC)ncnc4C4CC4)ccc32)cc1` (centres unmarked) [Example 117] returned an IC50 of 480 nM. For `CCS(=O)(=O)c1ccc(CNC(=O)N2CC3(CCC3)c3cc(-c4c(OC)ncnc4C4CC4)ccc32)nc1` [Example 129] the value was 370 nM. With `CNS(=O)(=O)c1ccc(CNC(=O)N2CC3(CCCC3)c3cc(-c4ccc(OC)nc4C)ccc32)cc1` [Example 68], the concentration for half-maximal inhibition (IC50) was found to be 1900 nM. Consider `COc1cc(C#N)ccc1CNC(=O)N1CC2(CCCC2)c2cc(-c3ccc(O)cc3C(F)(F)F)ccc21` [Example 102], for which it took 180 nM to reach half-maximal inhibition (IC50). Regarding `CCS(=O)(=O)c1ccc(CNC(=O)N2CC3(CCCC3)c3cc(-c4ccc(F)cc4C)ccc32)cc1` [Example 28], the IC50 amounted to 1200 nM. `CNS(=O)(=O)c1ccc(CNC(=O)N2CC3(CCCC3)c3cc(-c4ccc(OC)cc4C)ccc32)cc1` [Example 23]: the IC50 was determined as 1200 nM.

Molecule `CNS(=O)(=O)c1ccc(CNC(=O)N2CC3(CCCC3)c3cc(-c4ccc(NC(C)=O)cc4C)ccc32)cc1` [Example 50] registered an IC50 of 1900 nM. As for `CNS(=O)(=O)c1ccc(CNC(=O)N2CC3(CCCC3)c3cc(-c4ccc(F)cc4C(=O)OC)ccc32)cc1` [Example 85], it took 1300 nM to reach half-maximal inhibition (IC50). The molecule `CNS(=O)(=O)c1ccc(CNC(=O)N2CC3(CCCC3)c3cc(-c4ccccc4COC(C)(C)C)ccc32)cc1` [Example 81] yielded an IC50 of 980 nM. For `CNS(=O)(=O)c1ccc(CNC(=O)N2CC3(CCCC3)c3cc(C4=C(C)CCCC4)ccc32)cc1` [Example 95] the value was 340 nM; for `CNS(=O)(=O)c1ccc(CNC(=O)N2CC3(CCCC3)c3cc(-c4ccccc4-c4cnco4)ccc32)cc1` [Example 33], 750 nM. On to `COCCOc1cc(S(C)(=O)=O)ccc1CNC(=O)N1CC2(CCCC2)c2cc(-c3ccc(OC)cc3C(F)(F)F)ccc21` [Example 101], for which 1100 nM corresponded to half-maximal inhibition (IC50).

Consider `CCC1(C)CN(C(=O)NCc2ccc(S(=O)(=O)NC)cc2)c2ccc(-c3ccc(OC)cc3C(F)(F)F)cc21` (centres unmarked) [Example 57], for which it took 780 nM to reach half-maximal inhibition (IC50). The molecule `CNS(=O)(=O)c1ccc(CNC(=O)N2CC3(CCCC3)c3cc(-c4cc(F)ccc4C(F)(F)F)ccc32)cc1` [Example 7] showed a half-maximal inhibitory concentration (IC50) of 340 nM. Regarding `CCS(=O)(=O)c1ccc(CNC(=O)N2CC3(CCCC3)c3cc(-c4ccc(OC)cc4C(F)(F)F)ccc32)c(OC)c1` [Example 104], half-maximal inhibition (IC50) was put at 350 nM.

Take `CNS(=O)(=O)c1ccc(CNC(=O)N2CC3(CCCC3)c3cc(-c4ccc5[nH]ncc5c4C)ccc32)cc1` [Example 48]: the IC50 was 1600 nM. Regarding `CNS(=O)(=O)c1ccc(CNC(=O)N2CC3(CCCC3)c3cc(-c4ccc(C#N)cc4C)ccc32)cc1` [Example 15], the IC50 is 940 nM. Molecule `CNS(=O)(=O)c1ccc(CNC(=O)N2CC3(CCCC3)c3cc(-c4c(C)cccc4C#N)ccc32)cc1` [Example 91] registered an IC50 of 870 nM.

On to `CNS(=O)(=O)c1ccc(CNC(=O)N2CC3(CCCC3)c3cc(-c4cc5cnn(C)c5cc4C)ccc32)cc1` [Example 29], for which 720 nM corresponded to half-maximal inhibition (IC50). The molecule `Cc1cc(F)ccc1-c1ccc2c(c1)C1(CCCC1)CN2C(=O)NCc1ccc(S(C)(=O)=O)cc1` [Example 54] registered an IC50 of 1300 nM. The result for `CNS(=O)(=O)c1ccc(CNC(=O)N2CC3(CCCC3)c3cc(-c4ccccc4COC)ccc32)cc1` [Example 20] reads 1100 nM; that for `CNS(=O)(=O)c1ccc(CNC(=O)N2CC3(CCCC3)c3cc(-c4ccc(N)cc4C(=O)OC)ccc32)cc1` [Example 37], 920 nM. The result for `CNS(=O)(=O)c1ccc(CNC(=O)N2CC3(CCCC3)c3cc(-c4ccccc4C(F)F)ccc32)cc1` [Example 31] reads 740 nM. `CNS(=O)(=O)c1ccc(CNC(=O)N2CC3(CCCC3)c3cc(Oc4ccc(F)c(OC(F)(F)F)c4)ccc32)cc1` [Example 62] gave an IC50 of 970 nM. On to `CNS(=O)(=O)c1ccc(CNC(=O)N2CC3(CCCC3)c3cc(-c4cc5c(cnn5C)cc4C)ccc32)cc1` [Example 30], for which the IC50 came out at 740 nM. With `CNS(=O)(=O)c1ccc(CNC(=O)N2CC3(CCCC3)c3cc(-c4cnccc4C(F)(F)F)ccc32)cc1` [Example 25], the half-maximal inhibitory concentration (IC50) was determined as 1300 nM. In turn, `CCC1(CC)CN(C(=O)NCc2ccc(S(=O)(=O)NC)cc2)c2ccc(-c3ccc(F)cc3C)cc21` [Example 52] displayed an IC50 of 1100 nM. `CNS(=O)(=O)c1ccc(CNC(=O)N2CC3(CCCC3)c3cc(-c4ccc5c(cnn5C)c4C)ccc32)cc1` [Example 40] registered an IC50 of 1100 nM. For `CNS(=O)(=O)c1ccc(CNC(=O)N2CC3(CCCC3)c3cc(-c4ccc(OC)cc4C(F)(F)F)ccc32)cc1` [Example 6] the value was 310 nM. `CNS(=O)(=O)c1ccc(CNC(=O)N2CC3(CCCC3)c3cc(-c4ccc(O)cc4C(F)(F)F)ccc32)cc1` [Example 56] had an IC50 of 400 nM. `COCCOc1cc(C#N)ccc1CNC(=O)N1CC2(CCCC2)c2cc(-c3ccc(OC)cc3C(F)(F)F)ccc21` [Example 100] yielded an IC50 of 1200 nM.

For `COc1ncc(-c2ccc3c(c2)C2(CCCC2)CN3C(=O)NCc2ccc(S(C)(=O)=O)cc2)c(C2CC2)n1` [Example 108], inhibition was half-maximal at 1600 nM (IC50). For `CCc1ccccc1-c1ccc2c(c1)C1(CCCC1)CN2C(=O)NCc1ccc(S(=O)(=O)NC)cc1` [Example 9] the value was 610 nM; for `CNS(=O)(=O)c1ccc(CNC(=O)N2CC3(CCCC3)c3cc(-c4ccccc4CC(F)(F)F)ccc32)cc1` [Example 87], 680 nM. In the case of `CNS(=O)(=O)c1ccc(CNC(=O)N2CC3(CCCC3)c3cc(Oc4cccc(OC(F)(F)F)c4)ccc32)cc1` [Example 61], the IC50 worked out at 730 nM. The result for `CNS(=O)(=O)c1ccc(CNC(=O)N2CC3(CCCC3)c3cc(-c4ccc(C)cc4C#N)ccc32)cc1` [Example 39] reads 1000 nM.

Molecule `CNS(=O)(=O)c1ccc(CNC(=O)N2CC3(CCCC3)c3cc(-c4cc(C#N)ccc4C)ccc32)cc1` [Example 41] returned an IC50 of 1100 nM. Molecule `CCS(=O)(=O)c1ccc(CNC(=O)N2CC3(CCCC3)c3cc(-c4c(OC)ncnc4OC)ccc32)cc1` [Example 121] came in with an IC50 of 600 nM. Regarding `CCS(=O)(=O)c1ccc(CNC(=O)N2CC(C)(C3CC3)c3cc(-c4cncnc4C(C)C)ccc32)cc1` (centres unmarked) [Example 113], the IC50 was found to be 530 nM.

The record behind these values is patent US9745267B2, “Compounds as modulators of RORC” (Boehringer Ingelheim International GmbH, priority 2013, dated 2017).
